From patent publication US20170119034A1, “COMPOSITIONS AND METHODS FOR MODIFYING PERCEPTION OF SWEET TASTE” (University of Florida Research Foundation, Inc., priority 2012, published 2017)

Assays:
Assay type in all cases: in vivo, human
[1] = test system: texture liking of strawberry fruit (consumer panel); assay: Strawberry consumer panel: bivariate fit to texture liking; settings: bivariate linear fit; X = content of the substance in strawberry fruit, Y = Texture liking
Description: (§1) All consumer panels were approved by the University of Florida Institutional Review Board. […] Ages of panelist ranged from 18 to 71, with a median age of 24. Panelists self-classified themselves as 98 White or Caucasian, 11 Black or African-American, 1 Native American, Alaska Native or Aleutian, 41 Asian/Pacific Islander, and 15 Other. […] Fresh, fully-ripe strawberry fruit was removed from overnight 4° C. dark storage and allowed to warm to room temperature prior to sensory analysis. Each panelist was given one to two whole strawberries for evaluation, depending on cultivar availability. Panelist took a bite of each sample, chewed, and swallowed it. Ratings for overall liking and liking for texture were scaled on hedonic general labeled magnitude scale (gLMS) in the context of all pleasure/displeasure experiences. […] Scales were employed to mediate valid comparisons across subjects and sessions.
(§2) Bivariate analysis among individual measurements of samples allowed for linear fit, which includes summary of fit, analysis of variance, t-test, and correlation analysis for density ellipse. Two-way Ward hierarchical cluster analysis of all metabolite concentrations and strawberry samples accomplished in JMP.

[2] = test system: strawberry flavor intensity (consumer panel); assay: Strawberry consumer panel: bivariate fit to strawberry flavor intensity; settings: for Parameter Estimates: Estimate: bivariate linear fit, X = content of the substance in strawberry fruit, Y = Flavor Intensity (FI); for relationship to strawberry flavor intensity / sensory perception: in words
Description: as §1, §2

[3] = test system: perceived sweetness intensity of strawberry fruit (consumer panel); assay: Strawberry consumer panel: multiple regression of volatile concentration against perceived sweetness intensity independent of glucose, fructose or sucrose; settings: for enhancement of perceived intensity of sweetness independent of sugars: in words; for negatively related to sweetness: sugar(s) of which the effect is independent: compounds negatively related to sweetness independent of at least one of the sugars; for FRUCTOSE t RATIO: volatile concentration regressed against perceived sweetness intensity independent of fructose; for GLUCOSE t RATIO: volatile concentration regressed against perceived sweetness intensity independent of glucose; for SUCROSE t RATIO: volatile concentration regressed against perceived sweetness intensity independent of sucrose
Description: Step-wise multiple regressions of all volatile compounds against perceived intensity of sweetness is performed independent of either glucose, fructose, or sucrose concentration, separately (Table 6).
as §1
Multiple regressions were performed with the “enter” method in SPSS for identification of sweetness enhancing volatiles. Individual volatile compound concentrations were regressed using the “enter” method in SPSS Statistics (IBM Corp, Armonk, N.Y., USA).

Row | SMILES | Parameter Estimates-fit to Texture Liking: Estimate [1] | Parameter Estimates: Estimate [2] | other results
1 | CCC(O)C(=O)OC (stereo not shown) [29674-47-3] | 0.02693 | 0.207 | 
2 | CCCCCCCCC1CCC(=O)O1 (stereo not shown) [2305-05-7, 5-octyldihydro-2(3H)-furanone] |  |  | enhancement of perceived intensity of sweetness independent of sugars [3]: mutually independent of all three sugar
3 | CC(=O)CC(C)C [108-10-1, 4-Methyl-2-pentanone] |  |  | negatively related to sweetness: sugar(s) of which the effect is independent [3]: mutually independent of glucose and fructose
4 | CCCCCC(=O)OCC [123-66-0] | −0.0003354 | 0.002386 | relationship to strawberry flavor intensity / sensory perception [2]: no bearing on sensory perception
5 | CSC(C)=O [1534-08-3] | 0.06449 | 1.808 | 
6 | CCCC(=O)OC(C)CCC (stereo not shown) [60415-61-4, 2-pentanyl butyrate] |  |  | enhancement of perceived intensity of sweetness independent of sugars [3]: mutually independent of all three sugar
7 | CCCCCC(=O)OC [106-70-7] | −0.002647 | 0.002291 | FRUCTOSE t RATIO [3]: −0.321; GLUCOSE t RATIO [3]: −0.531; SUCROSE t RATIO [3]: 0.802
8 | CCCCCCCCOC(=O)C(C)CC (stereo not shown) [29811-50-5] | −0.1411 | 0.1055 | 
9 | CCCCC(=O)OC [624-24-8] | 0.2596 | −0.1 | 
10 | CCCCOC(=O)CC(C)C [109-19-3, butyl 3-methylbutanoate] |  |  | enhancement of perceived intensity of sweetness independent of sugars [3]: show evidence of enhancing perceived sweetness intensity independent of individual sugars
11 | CC(=O)OCCC(C)C [123-92-2] | −0.07997 | 0.005816 | 
12 | CCCCCCCC(=O)OCC [106-32-1, ethyl octanoate] |  |  | negatively related to sweetness: sugar(s) of which the effect is independent [3]: exclusively independent of glucose
13 | CC=C(C)C(=O)OCC [55514-48-2] | −2.984 | −0.1506 | 
14 | C/C=C/C(=O)OC [623-43-8] | −0.7133 | −0.101 | 
15 | CCCC(=O)OCC [105-54-4, ethyl butyrate] |  |  | relationship to strawberry flavor intensity / sensory perception [2]: significant positive correlation with flavor intensity
16 | CCOC(=O)CC [105-37-3] | −0.01062 | −0.01371 | 
17 | C=C[C@]1(C)CC[C@H](C(C)(C)O)O1 [5989-33-3] | 0.6605 | 0.7378 | 
18 | CCCCC(CC)COC(C)=O (stereo not shown) [103-09-3] | −1.955 | 0.01965 | 
19 | CCCCCCOC(=O)CCC [2639-63-6, hexyl butyrate] |  |  | enhancement of perceived intensity of sweetness independent of sugars [3]: mutually independent of all three sugar

Row | SMILES | Parameter Estimates-fit to Texture Liking: Estimate [1] | Parameter Estimates: Estimate [2] | other results
20 | C=CC(=O)CC [1629-58-9, 1-penten-3-one] |  |  | enhancement of perceived intensity of sweetness independent of sugars [3]: mutually independent of all three sugar
21 | CC/C=C/C=O [1576-87-0, (E)-pent-2-en-1-al] |  |  | relationship to strawberry flavor intensity / sensory perception [2]: enhancing toward flavor intensity
22 | CCCOC(C)=O [109-60-4] | −0.5137 | −0.05307 | 
23 | CCCCCOC(C)=O [628-63-7] | −0.1907 | 0.4892 | 
24 | CCCCC/C=C/C=O [2548-87-0] | 1.345 | 0.6039 | 
25 | CCCCCCCC=O [124-13-0] | −0.2865 | 0.3091 | 
26 | CCC/C=C/CO [928-95-0] | −0.0133 | −0.0006379 | 
27 | CCCCC=O [110-62-3] | 0.1789 | −0.1249 | relationship to strawberry flavor intensity / sensory perception [2]: negatively correlated to flavor
28 | O=C(O)CC(O)(CC(=O)O)C(=O)O [Citric] | −0.001831 | 0.01293 | 
29 | COC(=O)c1ccccc1N [134-20-3] | −4.493 | −0.8484 | 
30 | C=C(C)C1CC=C(COC(C)=O)CC1 (stereo not shown) [15111-96-3] | −0.1056 | −0.2365 | 
31 | CCCCCCOC(C)=O [142-92-7, hexyl acetate] |  |  | enhancement of perceived intensity of sweetness independent of sugars [3]: mutually independent of all three sugar
32 | CCCCCC=O [66-25-1] | 0.0005099 | 0.0002842 | relationship to strawberry flavor intensity / sensory perception [2]: does not have a significant correlation to flavor intensity
33 | CCCC(=O)OC [623-42-7] | 6.892e−05 | 0.0008905 | relationship to strawberry flavor intensity / sensory perception [2]: significant positive correlation with flavor intensity
34 | C=CC(C)(O)CC/C=C(\C)CCC=C(C)C (stereo not shown) [40716-66-3] | 0.01941 | 0.01223 | 
35 | CCCCCCC=O [111-71-7, heptanal] |  |  | enhancement of perceived intensity of sweetness independent of sugars [3]: show evidence of enhancing perceived sweetness intensity independent of individual sugars
36 | CCC(=O)CC [96-22-0] | 0.004596 | 0.05443 | 
37 | CCCCC(=O)C(C)=O [96-04-8] | −0.09953 | 0.01959 | 
38 | CCCCC(=O)OCC [539-82-2, ethyl valerate] |  |  | enhancement of perceived intensity of sweetness independent of sugars [3]: show evidence of enhancing perceived sweetness intensity independent of individual sugars

Row | SMILES | Parameter Estimates-fit to Texture Liking: Estimate [1] | Parameter Estimates: Estimate [2] | other results
39 | CCCCCC(C)=O [110-43-0] | 0.07262 | 0.06351 | FRUCTOSE t RATIO [3]: 1.054; GLUCOSE t RATIO [3]: 0.657; SUCROSE t RATIO [3]: 1.899
40 | Cc1cc(C(C)(C)C)c(O)c(C(C)(C)C)c1 [128-37-0] | 0.2009 | 0.1227 | 
41 | CCCCCCC1CCC(=O)O1 (stereo not shown) [706-14-9] | 0.01485 | 0.02049 | 
42 | COC(=O)CC(C)C [556-24-1] | −0.03139 | 0.009438 | FRUCTOSE t RATIO [3]: 0.732; GLUCOSE t RATIO [3]: 0.88; SUCROSE t RATIO [3]: 0.972
43 | CCCC(=O)CC [589-38-8] | 0.4306 | 0.4621 | 
44 | CCC(C)(C)O [75-85-4] | 0.3219 | 0.1051 | 
45 | CCCCCOC(=O)CCC [540-18-1, pentyl butyrate] |  |  | enhancement of perceived intensity of sweetness independent of sugars [3]: mutually independent of all three sugar
46 | C=CC(C)(O)CCC=C(C)C (stereo not shown) [78-70-6] | 0.007729 | 0.009457 | FRUCTOSE t RATIO [3]: 0.872; GLUCOSE t RATIO [3]: 0.7; SUCROSE t RATIO [3]: −0.1; relationship to strawberry flavor intensity / sensory perception [2]: significant positive correlation with flavor intensity
47 | COC1=C(C)OC(C)C1=O (stereo not shown) [4077-47-8, 4-methoxy-2,5-dimethyl-3(2H)-furanone] |  |  | relationship to strawberry flavor intensity / sensory perception [2]: significant positive correlation with flavor intensity
48 | CCC/C=C/COC(C)=O [2497-18-9] | −0.02456 | 0.008248 | 
49 | CC(=O)OCc1ccccc1 [140-11-4] | −0.0849 | 0.02204 | 
50 | CCC(C)COC(C)=O (stereo not shown) [624-41-9] | −0.03512 | 0.009696 | 
51 | CCCCCO [71-41-0] | 0.3727 | 0.2445 | 
52 | O=C(O)CC(O)C(=O)O (stereo not shown) [Malic] | 0.05905 | 0.001142 | 
53 | CCCCCCCC(C)=O [821-55-6] | 0.09508 | 0.06252 | FRUCTOSE t RATIO [3]: −0.267; GLUCOSE t RATIO [3]: −0.467; SUCROSE t RATIO [3]: 1.192
54 | CC(=O)OCC=C(C)C [1191-16-8, 3-methyl-2-buten-1-yl acetate] |  |  | negatively related to sweetness: sugar(s) of which the effect is independent [3]: exclusively independent of sucrose
55 | CCCCC/C=C\C=O [20664-46-4] | −0.04121 | 0.03985 | 
56 | CCCCCCCCOC(=O)CC(C)C [7786-58-5, octyl 3-methylbutanoate] |  |  | enhancement of perceived intensity of sweetness independent of sugars [3]: show evidence of enhancing perceived sweetness intensity independent of individual sugars
57 | C=CC(O)CC (stereo not shown) [616-25-1] | 0.06401 | 0.2097 | 
